Experiment [1] concerns TTX-sensitive Nav channels in mouse DRG neuron. The conditions noted are these: for block of TTX-sensitive Nav current: C57 Black 6 mouse DRG neuron.
Another experiment concerns the target hNav1.7 (Homo sapiens, UniProt Q15858). In words: cell-based. Particulars: read-out: PX hNav1.7 Tonic IC50. In kind it is cell-based.
The target in the next experiment is hNav1.4 (Homo sapiens, UniProt P35499). The experiment is described as follows: cell-based. Type of experiment: cell-based. Particulars: for IC50: PatchXpress, tonic block, read-out: PX hNav1.4 Tonic IC50; for Nav1.4/Nav1.7: ratio of PX tonic IC50 values.
Sequence of hNav1.4 (P35499 whole entry): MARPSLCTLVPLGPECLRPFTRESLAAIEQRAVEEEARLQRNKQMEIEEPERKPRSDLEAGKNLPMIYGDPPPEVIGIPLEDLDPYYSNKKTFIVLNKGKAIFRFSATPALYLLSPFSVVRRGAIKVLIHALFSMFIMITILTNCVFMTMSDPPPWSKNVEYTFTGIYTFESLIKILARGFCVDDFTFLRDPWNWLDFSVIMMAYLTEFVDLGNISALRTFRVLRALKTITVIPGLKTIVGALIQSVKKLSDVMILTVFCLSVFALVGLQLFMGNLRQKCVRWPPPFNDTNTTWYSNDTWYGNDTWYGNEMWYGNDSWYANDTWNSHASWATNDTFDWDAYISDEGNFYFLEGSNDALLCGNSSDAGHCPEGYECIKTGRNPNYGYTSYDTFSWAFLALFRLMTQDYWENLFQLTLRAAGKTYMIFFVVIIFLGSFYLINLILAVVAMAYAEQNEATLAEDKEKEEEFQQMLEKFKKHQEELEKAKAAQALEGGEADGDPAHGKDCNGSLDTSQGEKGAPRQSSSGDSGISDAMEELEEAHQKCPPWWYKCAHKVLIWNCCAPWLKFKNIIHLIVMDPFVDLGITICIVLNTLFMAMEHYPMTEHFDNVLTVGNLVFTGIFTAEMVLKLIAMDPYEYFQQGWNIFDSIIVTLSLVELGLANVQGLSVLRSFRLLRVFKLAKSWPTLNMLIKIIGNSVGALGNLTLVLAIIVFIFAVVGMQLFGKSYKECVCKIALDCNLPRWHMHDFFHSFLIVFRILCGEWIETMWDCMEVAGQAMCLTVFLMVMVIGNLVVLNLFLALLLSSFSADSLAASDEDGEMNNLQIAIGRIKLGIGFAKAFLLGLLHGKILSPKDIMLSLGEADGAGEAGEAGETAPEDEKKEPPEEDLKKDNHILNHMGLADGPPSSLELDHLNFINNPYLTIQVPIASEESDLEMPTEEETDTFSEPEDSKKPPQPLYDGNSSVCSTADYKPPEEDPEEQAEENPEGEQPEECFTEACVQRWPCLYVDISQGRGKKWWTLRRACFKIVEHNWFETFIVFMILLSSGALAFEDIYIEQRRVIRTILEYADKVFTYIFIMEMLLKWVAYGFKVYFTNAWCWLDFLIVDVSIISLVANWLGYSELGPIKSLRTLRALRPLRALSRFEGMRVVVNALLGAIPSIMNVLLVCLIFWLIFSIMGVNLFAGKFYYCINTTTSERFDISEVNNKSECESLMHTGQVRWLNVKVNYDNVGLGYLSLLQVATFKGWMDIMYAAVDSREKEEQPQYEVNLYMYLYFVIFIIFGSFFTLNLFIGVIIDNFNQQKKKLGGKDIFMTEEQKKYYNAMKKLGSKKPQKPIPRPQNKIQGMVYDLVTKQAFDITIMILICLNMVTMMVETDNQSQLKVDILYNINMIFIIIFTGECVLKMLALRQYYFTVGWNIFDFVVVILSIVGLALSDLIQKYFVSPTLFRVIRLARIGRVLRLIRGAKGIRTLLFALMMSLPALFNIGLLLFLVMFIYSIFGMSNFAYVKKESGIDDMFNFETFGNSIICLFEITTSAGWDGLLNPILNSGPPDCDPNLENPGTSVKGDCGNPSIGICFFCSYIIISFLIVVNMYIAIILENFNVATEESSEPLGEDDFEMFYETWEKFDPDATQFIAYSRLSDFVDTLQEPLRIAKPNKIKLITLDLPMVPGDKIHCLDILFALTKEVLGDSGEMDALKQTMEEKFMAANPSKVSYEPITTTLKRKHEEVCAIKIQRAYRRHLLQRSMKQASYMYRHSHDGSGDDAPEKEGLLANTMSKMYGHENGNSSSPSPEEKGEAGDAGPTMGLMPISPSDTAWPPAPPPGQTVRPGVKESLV
The target of another experiment is hNav1.5 (Homo sapiens, UniProt Q14524). In words: cell-based. The conditions noted are these: for Nav1.5/Nav1.7: ratio of PX tonic IC50 values.
The target of the next experiment is hNav1.6 (Homo sapiens, UniProt Q9UQD0). The experiment is described as follows: cell-based. Type of experiment: cell-based. The conditions noted are these: Table 15; for Nav1.6/Nav1.7: ratio of PX tonic IC50 values; for IC50: read-out: PX hNav1.6 Tonic IC50.
Sequence of hNav1.6 (Q9UQD0 whole entry): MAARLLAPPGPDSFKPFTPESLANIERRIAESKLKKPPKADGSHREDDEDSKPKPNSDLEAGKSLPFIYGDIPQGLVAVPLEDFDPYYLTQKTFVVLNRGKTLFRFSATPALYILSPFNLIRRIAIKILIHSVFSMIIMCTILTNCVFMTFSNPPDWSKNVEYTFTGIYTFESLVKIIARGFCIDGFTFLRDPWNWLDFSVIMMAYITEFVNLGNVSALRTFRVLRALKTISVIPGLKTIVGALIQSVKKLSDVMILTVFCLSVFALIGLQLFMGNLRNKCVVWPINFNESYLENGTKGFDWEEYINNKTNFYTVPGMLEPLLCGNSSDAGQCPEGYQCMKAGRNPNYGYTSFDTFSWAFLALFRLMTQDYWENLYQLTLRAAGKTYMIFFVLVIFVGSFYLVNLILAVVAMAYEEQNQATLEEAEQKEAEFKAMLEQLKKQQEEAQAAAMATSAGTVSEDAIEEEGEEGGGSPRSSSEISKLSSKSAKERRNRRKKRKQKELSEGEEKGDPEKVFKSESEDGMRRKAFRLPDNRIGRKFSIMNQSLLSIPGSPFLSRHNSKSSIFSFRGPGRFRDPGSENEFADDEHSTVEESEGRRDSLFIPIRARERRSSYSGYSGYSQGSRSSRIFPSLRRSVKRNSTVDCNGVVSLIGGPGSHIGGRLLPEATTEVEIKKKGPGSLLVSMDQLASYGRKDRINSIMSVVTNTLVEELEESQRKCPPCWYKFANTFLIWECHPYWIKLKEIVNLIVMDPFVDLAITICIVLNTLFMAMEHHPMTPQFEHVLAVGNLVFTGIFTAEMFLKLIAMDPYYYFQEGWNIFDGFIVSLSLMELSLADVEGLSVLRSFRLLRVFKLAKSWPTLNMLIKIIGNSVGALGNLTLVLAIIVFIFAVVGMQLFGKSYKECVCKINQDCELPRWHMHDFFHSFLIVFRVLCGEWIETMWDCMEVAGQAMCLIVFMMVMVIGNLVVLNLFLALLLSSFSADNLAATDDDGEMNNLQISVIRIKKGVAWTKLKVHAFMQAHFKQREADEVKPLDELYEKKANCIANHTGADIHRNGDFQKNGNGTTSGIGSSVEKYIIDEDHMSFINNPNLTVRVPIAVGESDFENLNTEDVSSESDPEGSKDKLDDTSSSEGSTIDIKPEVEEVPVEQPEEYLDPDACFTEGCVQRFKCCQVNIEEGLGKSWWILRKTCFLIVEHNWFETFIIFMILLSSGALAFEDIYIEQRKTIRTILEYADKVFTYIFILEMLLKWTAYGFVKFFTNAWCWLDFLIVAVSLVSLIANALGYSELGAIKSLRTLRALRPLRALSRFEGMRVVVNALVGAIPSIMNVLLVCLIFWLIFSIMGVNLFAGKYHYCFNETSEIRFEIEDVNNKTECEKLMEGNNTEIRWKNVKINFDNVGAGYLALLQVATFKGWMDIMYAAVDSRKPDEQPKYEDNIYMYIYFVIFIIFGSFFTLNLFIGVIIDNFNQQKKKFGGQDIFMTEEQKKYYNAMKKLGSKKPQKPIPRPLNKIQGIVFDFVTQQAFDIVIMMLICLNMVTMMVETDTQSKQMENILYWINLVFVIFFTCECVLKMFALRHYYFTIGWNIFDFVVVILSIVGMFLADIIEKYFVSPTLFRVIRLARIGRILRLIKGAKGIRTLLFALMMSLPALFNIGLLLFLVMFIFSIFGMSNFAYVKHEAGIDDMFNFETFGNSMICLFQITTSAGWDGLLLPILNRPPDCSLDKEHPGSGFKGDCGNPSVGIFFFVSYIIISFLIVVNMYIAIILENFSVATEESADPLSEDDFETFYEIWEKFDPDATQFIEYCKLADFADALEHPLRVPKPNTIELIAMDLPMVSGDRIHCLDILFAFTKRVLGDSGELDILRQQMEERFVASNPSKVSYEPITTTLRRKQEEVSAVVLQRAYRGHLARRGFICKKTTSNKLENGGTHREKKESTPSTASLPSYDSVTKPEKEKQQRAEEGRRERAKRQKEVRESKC

Several values for one entry are separate records, joined by “and”; a condition that tells them apart may be missing. Equal values may be shown once. Read-outs that look alike come from different tables or passages of the source. A value given as a limit tells only on which side of the number the result lay.

As to `C#CC[C@H](N)C(=O)NCCCC[C@@H]1NC(=O)[C@H](CCCNC(=N)N)NC(=O)[C@H](CCCCN)NC(=O)[C@H](CO)NC(=O)[C@H](CC(=O)O)NC(=O)[C@@H]2CSSC[C@@H]3NC(=O)[C@H](CCCNC(=N)N)NC(=O)[C@H](CC(C)C)NC(=O)CNC(=O)[C@H](CCC(=O)O)NC(=O)[C@H](CSSC[C@H](NC(=O)[C@H](Cc4ccc(O)cc4)NC(=O)[C@@H](N)CC#N)C(=O)N[C@@H](CCC(N)=O)C(=O)N[C@@H](CCCCN)C(=O)N[C@@H](Cc4c[nH]c5ccccc45)C(=O)N[C@@H](CCCC)C(=O)N[C@@H](Cc4c[nH]c5ccccc45)C(=O)N[C@@H]([C@@H](C)O)C(=O)N2)NC(=O)[C@H](CSSC[C@@H](C(=O)N[C@@H](CCCNC(=N)N)C(=O)N[C@@H](CCCCN)C(=O)N[C@@H](CCC(=O)O)C(=O)N[C@H](C(N)=O)[C@@H](C)CC)NC(=O)[C@H](Cc2c[nH]c4ccccc24)NC(=O)[C@H](CC(C)C)NC(=O)[C@H](CCCCN)NC3=O)NC1=O` [compound 392], the IC50 in experiment [1] worked out at 46.6 nM; at hNav1.7 (Table 15), 1.59 nM; at hNav1.4 (Table 12) it was 110 nM; on hNav1.6, 250 nM. Moreover, the “fold less potent than JzTx-V in inhibition of TTX-sensitive current” value in experiment [1] is given as “about 3 fold”. Besides, on hNav1.5 (Table 12), the Nav1.5/Nav1.7 was 659 and 615 and 841. Further, on hNav1.6, the Nav1.6/Nav1.7 is recorded as 157.
On to `CCCC[C@@H]1NC(=O)[C@H](Cc2c[nH]c3ccccc23)NC(=O)[C@H](CCCCN)NC(=O)[C@H](CCC(N)=O)NC(=O)[C@@H](NC(=O)[C@H](Cc2ccc(O)cc2)NC(=O)[C@@H](N)CC#N)CSSC[C@@H]2NC(=O)[C@@H]3CSSC[C@@H](C(=O)N[C@@H](CCCNC(=N)N)C(=O)N[C@@H](CCCCN)C(=O)N[C@@H](CCC(=O)O)C(=O)N[C@H](C(N)=O)[C@@H](C)CC)NC(=O)[C@H](Cc4c[nH]c5ccccc45)NC(=O)[C@H](CC(C)C)NC(=O)[C@H](CCCCN)NC(=O)[C@H](CSSC[C@H](NC(=O)[C@H]([C@@H](C)O)NC(=O)[C@H](Cc4c[nH]c5ccccc45)NC1=O)C(=O)N[C@@H](CC(=O)O)C(=O)N[C@@H](CO)C(=O)N[C@@H](CCCCN)C(=O)N[C@@H](CCCNC(=N)N)C(=O)N[C@@H](C)C(=O)N3)NC(=O)[C@H](CCCNC(=N)N)NC(=O)[C@H](CC(C)C)NC(=O)CNC(=O)[C@H](Cc1cn(CCCOCCOCCOCCOCCOCCOCCOCCOCCOCCOCCN)nn1)NC2=O` [compound 443], for which the IC50 in experiment [1] is 35.2 nM. Moreover, the “block of TTX-sensitive Nav current” value in experiment [1] (300 nM) is listed as “over 75%”. Also, the Nav1.4/Nav1.7 on hNav1.4 (Table 13) is given as 31. In addition, the Nav1.5/Nav1.7 on hNav1.5 (Table 13) was determined as 236.
For the molecule `C#CC[C@H](N)C(=O)N[C@@H](Cc1ccc(O)cc1)C(=O)N[C@H]1CSSC[C@@H]2NC(=O)[C@@H]3CSSC[C@@H](C(=O)N[C@@H](CCCNC(=N)N)C(=O)N[C@@H](CCCCN)C(=O)N[C@@H](CCC(=O)O)C(=O)N[C@H](C(N)=O)[C@@H](C)CC)NC(=O)[C@H](Cc4c[nH]c5ccccc45)NC(=O)[C@H](CC(C)C)NC(=O)[C@H](CCCCN)NC(=O)[C@H](CSSC[C@H](NC(=O)[C@H]([C@@H](C)O)NC(=O)[C@H](Cc4c[nH]c5ccccc45)NC(=O)[C@H](CCCC)NC(=O)[C@H](Cc4c[nH]c5ccccc45)NC(=O)[C@H](CCCCN)NC(=O)[C@H](CCC(N)=O)NC1=O)C(=O)N[C@@H](CC(=O)O)C(=O)N[C@@H](CO)C(=O)N[C@@H](CCC(=O)O)C(=O)N[C@@H](CCCNC(=N)N)C(=O)N[C@@H](C)C(=O)N3)NC(=O)[C@H](CCCNC(=N)N)NC(=O)[C@H](CC(C)C)NC(=O)CNC(=O)[C@H](CCC(=O)O)NC2=O` [compound 715], the IC50 in experiment [1] was 144 nM; at hNav1.7 (Table 12, PatchXpress, tonic block), 1.73 nM; at hNav1.4 (Table 12) it was 811 nM; at hNav1.5 (Table 12, PatchXpress, tonic block, read-out: PX hNav1.5 Tonic IC50), > 10 µM; at hNav1.6, 877 nM. Besides, the “block of TTX-sensitive Nav current” value in experiment [1] (1000 nM) is “approximately 90%”. On hNav1.4 (Table 12), the Nav1.4/Nav1.7 was 470. Besides, at hNav1.5 (Table 12), the Nav1.5/Nav1.7 is listed as >5794. On hNav1.6, the Nav1.6/Nav1.7 is listed as 508.

Source of the values: patent publication US10344060B2 (priority 2013, dated 2019).
